From ChEMBL document CHEMBL4507268 (2021)

Assays:
Conditions in all cases: Compound concentration 1.0 uM
[1] = organism: Homo sapiens
[2] = target: Calcium/calmodulin-dependent protein kinase type II subunit alpha (Homo sapiens) (UniProt Q9UQM7)
[3] = target: T1, Homeodomain-interacting protein kinase 4 (Homo sapiens) (UniProt Q8NE63)
T1 sequence (whole entry): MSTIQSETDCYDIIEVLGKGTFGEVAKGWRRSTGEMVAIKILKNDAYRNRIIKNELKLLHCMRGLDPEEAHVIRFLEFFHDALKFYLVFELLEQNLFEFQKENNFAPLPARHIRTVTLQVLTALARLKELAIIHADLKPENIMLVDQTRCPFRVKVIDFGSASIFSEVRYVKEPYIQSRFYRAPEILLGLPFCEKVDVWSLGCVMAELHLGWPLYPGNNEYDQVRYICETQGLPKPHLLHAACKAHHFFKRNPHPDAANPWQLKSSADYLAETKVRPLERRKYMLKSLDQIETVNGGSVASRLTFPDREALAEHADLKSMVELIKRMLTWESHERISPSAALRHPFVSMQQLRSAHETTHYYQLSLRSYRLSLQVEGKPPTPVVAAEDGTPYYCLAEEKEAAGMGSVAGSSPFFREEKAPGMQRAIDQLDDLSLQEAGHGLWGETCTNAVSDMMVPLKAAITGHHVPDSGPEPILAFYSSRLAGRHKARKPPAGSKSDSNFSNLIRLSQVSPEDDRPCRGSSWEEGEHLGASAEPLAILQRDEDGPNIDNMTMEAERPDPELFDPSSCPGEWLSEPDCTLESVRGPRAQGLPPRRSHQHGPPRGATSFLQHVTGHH

[4] = target: T2, Serine/threonine-protein kinase Nek11 (Homo sapiens) (UniProt Q8NG66)
T2 sequence (whole entry): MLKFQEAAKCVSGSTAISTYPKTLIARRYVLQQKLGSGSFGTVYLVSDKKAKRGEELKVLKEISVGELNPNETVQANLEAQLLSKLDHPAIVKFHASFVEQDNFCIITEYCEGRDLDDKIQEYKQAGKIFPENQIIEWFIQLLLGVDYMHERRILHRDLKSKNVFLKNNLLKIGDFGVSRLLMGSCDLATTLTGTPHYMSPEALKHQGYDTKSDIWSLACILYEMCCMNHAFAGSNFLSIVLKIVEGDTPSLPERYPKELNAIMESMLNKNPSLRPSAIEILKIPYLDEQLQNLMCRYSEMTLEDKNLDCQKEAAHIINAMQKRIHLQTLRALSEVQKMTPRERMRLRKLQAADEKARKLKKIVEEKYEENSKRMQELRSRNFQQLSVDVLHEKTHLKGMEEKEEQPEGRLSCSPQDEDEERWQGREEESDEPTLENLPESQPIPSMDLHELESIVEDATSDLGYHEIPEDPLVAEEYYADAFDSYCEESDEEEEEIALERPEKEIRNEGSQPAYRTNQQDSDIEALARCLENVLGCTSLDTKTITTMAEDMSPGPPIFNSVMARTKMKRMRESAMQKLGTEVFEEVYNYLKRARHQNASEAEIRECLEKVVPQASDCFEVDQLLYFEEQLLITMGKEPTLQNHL

[5] = target: Transient receptor potential cation channel subfamily M member 7 (Homo sapiens) (UniProt Q96QT4)
[6] = target: T3, Tyrosine-protein kinase ZAP-70 (Homo sapiens) (UniProt P43403)
T3 sequence (whole entry): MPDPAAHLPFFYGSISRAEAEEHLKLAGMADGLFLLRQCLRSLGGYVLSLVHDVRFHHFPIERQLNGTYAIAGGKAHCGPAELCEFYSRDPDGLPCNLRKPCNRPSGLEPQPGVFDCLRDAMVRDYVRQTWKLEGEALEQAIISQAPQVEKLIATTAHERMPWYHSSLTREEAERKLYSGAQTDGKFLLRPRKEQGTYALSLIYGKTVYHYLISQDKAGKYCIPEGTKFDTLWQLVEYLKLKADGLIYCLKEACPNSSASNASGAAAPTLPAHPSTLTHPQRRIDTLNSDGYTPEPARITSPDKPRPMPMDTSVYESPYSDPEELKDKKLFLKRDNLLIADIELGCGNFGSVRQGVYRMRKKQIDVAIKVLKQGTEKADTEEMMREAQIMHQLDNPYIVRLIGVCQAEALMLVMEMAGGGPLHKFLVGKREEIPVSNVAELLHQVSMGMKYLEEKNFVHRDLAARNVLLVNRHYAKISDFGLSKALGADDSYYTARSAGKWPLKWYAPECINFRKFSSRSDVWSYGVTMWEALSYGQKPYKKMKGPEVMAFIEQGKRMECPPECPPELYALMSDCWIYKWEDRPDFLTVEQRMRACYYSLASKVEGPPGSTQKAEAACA

[7] = target: T4, NUAK family SNF1-like kinase 1 (Homo sapiens) (UniProt O60285)
T4 sequence (whole entry): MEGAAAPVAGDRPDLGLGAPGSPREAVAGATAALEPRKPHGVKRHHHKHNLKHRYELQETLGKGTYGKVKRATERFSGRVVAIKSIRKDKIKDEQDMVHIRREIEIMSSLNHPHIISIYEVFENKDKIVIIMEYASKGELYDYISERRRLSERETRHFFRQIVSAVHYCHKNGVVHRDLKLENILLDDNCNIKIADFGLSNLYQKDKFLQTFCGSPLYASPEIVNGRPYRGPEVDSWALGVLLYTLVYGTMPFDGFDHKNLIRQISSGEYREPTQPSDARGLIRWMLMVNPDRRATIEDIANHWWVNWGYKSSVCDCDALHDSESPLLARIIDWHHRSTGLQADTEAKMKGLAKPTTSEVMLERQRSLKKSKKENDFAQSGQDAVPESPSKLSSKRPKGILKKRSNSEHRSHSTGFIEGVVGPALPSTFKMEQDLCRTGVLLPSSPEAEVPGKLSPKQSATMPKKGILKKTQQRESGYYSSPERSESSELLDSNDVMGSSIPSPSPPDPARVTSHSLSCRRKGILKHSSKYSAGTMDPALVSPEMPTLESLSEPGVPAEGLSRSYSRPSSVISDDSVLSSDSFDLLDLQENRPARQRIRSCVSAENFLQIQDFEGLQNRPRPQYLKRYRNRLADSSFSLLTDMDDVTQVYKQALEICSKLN

Measured: % residual kinase activity

Transient receptor potential cation channel subfamily M member 7 (Homo sapiens), sequence (Q96QT4 whole entry): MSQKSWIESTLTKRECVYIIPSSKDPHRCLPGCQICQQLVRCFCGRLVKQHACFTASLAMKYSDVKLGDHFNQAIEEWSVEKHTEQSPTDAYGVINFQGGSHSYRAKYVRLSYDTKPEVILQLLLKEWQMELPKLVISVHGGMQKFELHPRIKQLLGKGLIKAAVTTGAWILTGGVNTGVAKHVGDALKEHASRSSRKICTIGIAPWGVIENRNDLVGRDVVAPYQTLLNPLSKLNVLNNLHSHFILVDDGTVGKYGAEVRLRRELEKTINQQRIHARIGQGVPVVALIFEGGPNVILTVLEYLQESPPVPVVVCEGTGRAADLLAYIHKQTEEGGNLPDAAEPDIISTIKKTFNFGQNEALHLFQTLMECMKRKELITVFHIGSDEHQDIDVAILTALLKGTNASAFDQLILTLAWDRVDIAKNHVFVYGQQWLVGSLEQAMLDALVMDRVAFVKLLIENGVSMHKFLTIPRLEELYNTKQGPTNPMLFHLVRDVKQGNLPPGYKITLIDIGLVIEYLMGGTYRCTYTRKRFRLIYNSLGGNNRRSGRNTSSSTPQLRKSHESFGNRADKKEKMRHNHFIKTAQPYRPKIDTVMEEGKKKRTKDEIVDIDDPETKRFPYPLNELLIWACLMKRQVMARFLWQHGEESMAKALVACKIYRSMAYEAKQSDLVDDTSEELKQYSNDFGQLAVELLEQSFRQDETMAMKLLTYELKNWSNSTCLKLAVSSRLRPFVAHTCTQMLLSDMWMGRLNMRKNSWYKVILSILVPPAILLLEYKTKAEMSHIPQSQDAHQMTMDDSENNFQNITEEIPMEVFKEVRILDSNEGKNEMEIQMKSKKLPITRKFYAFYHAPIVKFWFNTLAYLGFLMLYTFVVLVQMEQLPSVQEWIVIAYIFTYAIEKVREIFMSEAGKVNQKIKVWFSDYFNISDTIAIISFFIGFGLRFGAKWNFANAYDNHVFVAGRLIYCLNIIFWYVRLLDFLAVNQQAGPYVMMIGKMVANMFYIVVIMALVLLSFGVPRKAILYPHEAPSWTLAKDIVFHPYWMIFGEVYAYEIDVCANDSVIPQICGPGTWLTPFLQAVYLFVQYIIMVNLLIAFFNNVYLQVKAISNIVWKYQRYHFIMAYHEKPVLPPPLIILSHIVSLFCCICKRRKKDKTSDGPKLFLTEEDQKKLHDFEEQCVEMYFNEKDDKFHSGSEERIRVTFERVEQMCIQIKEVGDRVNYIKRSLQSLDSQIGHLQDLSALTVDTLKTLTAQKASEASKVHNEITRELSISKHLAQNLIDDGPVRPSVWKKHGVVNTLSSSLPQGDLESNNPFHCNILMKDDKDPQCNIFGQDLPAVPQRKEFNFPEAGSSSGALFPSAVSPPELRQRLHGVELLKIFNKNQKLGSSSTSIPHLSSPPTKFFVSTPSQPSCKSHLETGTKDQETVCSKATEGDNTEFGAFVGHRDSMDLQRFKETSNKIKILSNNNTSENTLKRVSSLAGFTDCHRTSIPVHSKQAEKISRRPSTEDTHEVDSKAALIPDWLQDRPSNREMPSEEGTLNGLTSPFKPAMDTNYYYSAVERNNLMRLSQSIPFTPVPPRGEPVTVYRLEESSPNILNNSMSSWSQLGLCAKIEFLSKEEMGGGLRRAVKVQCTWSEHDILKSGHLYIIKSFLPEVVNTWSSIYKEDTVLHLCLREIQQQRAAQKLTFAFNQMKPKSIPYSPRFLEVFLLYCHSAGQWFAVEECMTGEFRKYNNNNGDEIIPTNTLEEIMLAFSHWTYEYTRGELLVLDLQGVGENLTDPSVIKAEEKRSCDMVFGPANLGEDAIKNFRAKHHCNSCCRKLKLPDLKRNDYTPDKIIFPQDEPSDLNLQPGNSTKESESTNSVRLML
Calcium/calmodulin-dependent protein kinase type II subunit alpha (Homo sapiens), sequence (Q9UQM7 whole entry): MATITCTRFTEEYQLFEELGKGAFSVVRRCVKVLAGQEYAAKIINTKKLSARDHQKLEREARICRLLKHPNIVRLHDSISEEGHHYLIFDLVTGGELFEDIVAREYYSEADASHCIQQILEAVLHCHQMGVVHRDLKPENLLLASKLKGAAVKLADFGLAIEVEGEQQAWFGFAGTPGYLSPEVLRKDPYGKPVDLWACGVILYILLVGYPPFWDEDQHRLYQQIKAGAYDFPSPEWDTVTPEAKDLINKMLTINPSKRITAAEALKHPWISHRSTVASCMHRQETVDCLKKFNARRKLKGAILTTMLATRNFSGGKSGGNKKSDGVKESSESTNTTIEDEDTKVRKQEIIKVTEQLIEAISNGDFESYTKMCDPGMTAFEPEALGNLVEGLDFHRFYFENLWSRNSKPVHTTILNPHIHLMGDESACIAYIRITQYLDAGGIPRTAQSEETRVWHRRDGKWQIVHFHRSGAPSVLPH

CN1CCN(c2cnc3c(C4CCN(C(=O)c5ccc(OC(F)(F)F)cc5N)CC4)ncnc3c2)CC1 [BAY-885]
inactive: [1] 107% | [2] 108% | [3] 94% | [4] 104% | [5] 122% | [6] 108% | [7] 101%
